Experimental data published in patent US4988681A, “Phosphinic acid derivatives” (Banyu Pharmaceutical Co., Ltd., priority 1988, dated 1991).
Like-named read-outs stand apart in the source and are kept apart here.

Tests used:
[1] = target: T1, porcine kidney dehydropeptidase I (Sus scrofa, UniProt P22412); assay: Inhibitory activity on porcine kidney dehydropeptidase I (DHP-I); type: biochemical
T1 construct: Frozen porcine kidney cortex was homogenized; from tissue; host or cells: porcine kidney cortex
T1 sequence (P22412 17-409): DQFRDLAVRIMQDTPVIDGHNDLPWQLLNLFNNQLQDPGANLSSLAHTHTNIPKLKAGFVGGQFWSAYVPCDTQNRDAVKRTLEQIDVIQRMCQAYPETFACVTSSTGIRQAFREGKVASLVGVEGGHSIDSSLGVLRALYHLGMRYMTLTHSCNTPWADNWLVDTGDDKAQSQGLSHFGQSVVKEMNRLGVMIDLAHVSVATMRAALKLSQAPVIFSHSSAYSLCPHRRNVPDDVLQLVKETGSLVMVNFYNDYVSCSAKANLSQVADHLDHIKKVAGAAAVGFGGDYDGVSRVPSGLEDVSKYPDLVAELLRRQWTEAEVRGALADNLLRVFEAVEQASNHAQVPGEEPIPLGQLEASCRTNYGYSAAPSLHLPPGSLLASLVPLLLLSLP
Description: (1) Inhibitory activity on porcine kidney dehydropeptidase I
(i) Purification of porcine dehydropeptidase I
Frozen porcine kidney cortex was homogenized. Butanol (1/4 volume) pre-cooled in a dry ice-acetone bath was added to the homogenate, and the mixture was stirred at 4° C. for 43 hours. The mixture was then dialyzed for one day and centrifuged at 3,000 g for 30 minutes. To the resulting supernatant was added ammonium sulfate. A precipitate at the salt concentration range between 50 and 75% was collected to give a crude enzyme preparation which was re-dissolved in a 50 mM MOPS buffer containing 0.5 M NaCl. The solution was charged on a cilastatin affinity column. Elution with a 50 mM MOPS buffer containing 0.5 M NaCN gave a purified enzyme preparation.
(ii) Measurement of inhibitory activity
The resulting enzyme preparation (3 mU) and an inhibitor were pre-incubatedat 37° C. for 3 hours in 2.7 ml of a 50 mM MOPS buffer (pH 7.4), and then 2.475 ml of the mixture was transferred into a cuvette. As a substrate, 25 microliters of a 5 mM glycyldehydrophenylalanine solution in a 50 mM MOPS buffer (pH 7.4) was added to start an enzymic reaction. The reaction was carried out at 37° C. in a spectrophotometer fitted with a constant-emperature device, and a decrease of the absorbance at 275 nm during a period of 5 minutes was measured. […] An IC50 value was calculated from the percent inhibition data.
One unit (U) is defined as the amount of the enzyme which hydrolyzes 1 micromole of the substrate (glycyldehydrophenylalanine) per minute at a substrate concentration of 0.05 mM at 37° C. in a 50 mM MOPS buffer (pH 7.4).

[2] = Effect on urinary recovery of carbapenem (imipenem) in rats; type: in vivo, Male SD rats; settings: urine up to 8 hours, n = 3
Description: (2) Effect on urinary recovery of carbapenem
Male SD rats (8 week-old) were grouped, three per group. Imipenem alone was intravenously administered in a dose of 10 mg/kg to a first group. […] For comparison, a combination of imipenem (10 mg/kg) and cilastatin (10 mg/kg) was intravenously administered to a fourth group.
The urinary recovery of imipenem was calculated.

[3] = Pharmacokinetic evaluation: plasma concentration in rats; type: in vivo, Male SD rats; settings: for AUC / concentration at 0.5 h / concentration at 0.25 h / concentration at 5 min / concentration at 1 h / concentration at 2 h / concentration at 4 h / concentration at 6 h / concentration at 8 h / concentration at 24 h: rat; for AUC: trapezoidal rule; for concentration at 0.5 h: 1/2 h; for concentration at 0.25 h: 1/4 h; for concentration at 5 min: 1/12 h
Description: (4) Pharmacokinetic evaluations
Male SD rats ([…]) were divided into groups each consisting of three animals. […] Furthermore, cilastatin was intravenously administered to a 14th group as a control group.
Plasma samples were taken periodically from the carotid artery through a cannula inserted into it at the points of 1/12, 1/4, 1/2, 1, 2, 4, 6, 8 and 24 hours after the administration.
The area under the curve (AUC) of the plasma concentration was determined according to the trapezoidal rule.

[4] = system: DHP-I; settings: in words, cited from earlier work
[5] = system: nephrotoxicity induced by imipenem; assay: Protective action on nephrotoxicity induced by imipenem in rabbits; type: in vivo, male Japanese white rabbits; settings: imipenem 150 mg/kg alone
Description: (3) Protective action on nephrotoxicity induced by carbapenem antibiotics
Twelve male Japanese white rabbits (18 week-old; body weight 3.19-3.54 kg) were divided into three groups each consisting of 4 animals. Imipenem alone was administered in a dose of 150 mg/kg to a first group. To a second group, a combination of imipenem (150 mg/kg) and the compound No. 2 (150 mg/kg) was administered. To a third group as a control, sterilized physiological saline was administered. In all cases, the administration was effected through the auricular vein. Forty-eight hours later, a blood sample was taken from each of the animals, and the BUN and creatinine values were measured. The kidneys of the rabbits were taken and examined histopathologically.

[6] = in vivo, iv 10 mg/kg (cilastatin dose not given)
[7] = DHP-I inhibitory compounds of cited literature including cilastatin
[8] = substrate glycyldehydrophenylalanine, pH 7.4, 37° C., 3 h pre-incubation, read-out: Concentration producing 50% inhibition (IC50)
[9] = plasma, iv 10 mg/kg (cilastatin dose not given)
[10] = plasma, iv 10 mg/kg (cilastatin dose not given), N.D.: below the detection limit
[11] = plasma, iv 10 mg/kg, N.D.: below the detection limit
[12] = plasma, po 10 mg/kg, N.D.: below the detection limit
[13] = plasma, ester po, 10 mg/kg equivalent to compound No. 2, calculated as free acid (No. 2)

Row | Compound | IC50 [1, 8] [nM] | AUC [3, 9] [ng·h/mL] | AUC ([3]; plasma, po 10 mg/kg) [ng·h/mL] | concentration at 0.5 h [3, 9] [ng/mL] | concentration at 0.25 h [3, 9] [ng/mL] | concentration at 5 min [3, 9] [ng/mL] | concentration at 1 h [3, 10] [ng/mL] | concentration at 2 h ([3]; plasma, iv 10 mg/kg) [ng/mL] | concentration at 4 h ([3]; plasma, iv 10 mg/kg) [ng/mL] | concentration at 6 h [3, 11] [ng/mL] | concentration at 8 h ([3]; plasma, iv 10 mg/kg) [ng/mL] | concentration at 24 h [3, 11] [ng/mL] | concentration at 0.5 h ([3]; plasma, po 10 mg/kg) [ng/mL] | concentration at 0.25 h ([3]; plasma, po 10 mg/kg) [ng/mL] | concentration at 5 min ([3]; plasma, po 10 mg/kg) [ng/mL] | concentration at 1 h ([3]; plasma, po 10 mg/kg) [ng/mL] | concentration at 2 h ([3]; plasma, po 10 mg/kg) [ng/mL] | concentration at 4 h ([3]; plasma, po 10 mg/kg) [ng/mL] | concentration at 6 h ([3]; plasma, po 10 mg/kg) [ng/mL] | concentration at 8 h [3, 12] [ng/mL] | further results
1 | CC1(C)C[C@@H]1C(=O)N/C(=C\CCCCSC[C@H](N)C(=O)O)C(=O)O [Cilastatin, reference compound] | – | – | – | – | – | – | – | – | – | – | – | – | – | – | – | – | – | – | – | – | IC50 [1]: 100 nM; Urinary recovery of imipenem, Mean ± S.D. ([2]; inhibitor 10 mg/kg iv with imipenem 10 mg/kg iv): 85.9 ± 2.9%; AUC [3, 6]: 12000 ng·h/mL; concentration at 0.5 h [3, 6]: 5800 ng/mL; concentration at 0.25 h [3, 6]: 18800 ng/mL; concentration at 5 min [3, 6]: 46900 ng/mL; Activity in oral administration [4, 7]: do not show sufficient activity in oral administration; Duration of action [4, 7]: do not always have satisfactory duration of action; Effect on potential renal toxicity of imipenem ([4]; combined use with imipenem): prevent its potential renal toxicity; Effect on urinary recovery of imipenem ([4]; combined use with imipenem): greatly improve urinary recovery of imipenem; Oral absorption [4]: not orally absorbable
2 | O=C(O)/C(=C/C1CCCCC1)CP(=O)(O)CC1CCCC1 [Compound No. 17, (Z)-3-cyclohexyl-2-(cyclopentylmethylhydroxyphosphinoyl)methylpropenoic acid] | 18 | 226000 | 18400 | 55000 | 74700 | 86700 | 38000 | 25200 | 14800 | 10800 | 6400 | 500 | 5000 | 4100 | 500 | 5000 | 3200 | 2100 | 1000 | 100 | –
3 | CC(C)CP(=O)(O)C/C(=C\CCCSC[C@H](N)C(=O)O)C(=O)O [Compound No. 23, (Z)-6-[(L)-2-amino-2-carboxyethyl]thio-2-(hydroxyisobutylphosphinoyl)methyl-2-hexenoic acid] | 48 | 17900 | – | 13900 | 21000 | 28700 | 4200 | 900 | 100 | – | – | – | – | – | – | – | – | – | – | – | –
4 | Cc1oc(=O)oc1COC(=O)/C(=C/C1CCCCC1)CP(=O)(O)CC(C)C [Compound No. 27, (5-methyl-2-oxo-1,3-dioxol-4-yl)methyl (Z)-3-cyclohexyl-2-(hydroxyisobutylphosphinoyl)methylpropenoate] | 150000 | – | – | – | – | – | – | – | – | – | – | – | – | – | – | – | – | – | – | – | AUC [3, 13]: 56900 ng·h/mL; concentration at 0.5 h [3, 13]: 13300 ng/mL; concentration at 0.25 h [3, 13]: 10100 ng/mL; concentration at 5 min [3, 13]: 1500 ng/mL; concentration at 1 h [3, 13]: 11500 ng/mL; concentration at 2 h [3, 13]: 9300 ng/mL; concentration at 4 h [3, 13]: 4600 ng/mL; concentration at 6 h [3, 13]: 2600 ng/mL; concentration at 8 h [3, 13]: 1400 ng/mL; Oral absorbability ([3]; rats, in words): better oral absorbability than the compound No. 2
5 | O=C(O)/C(=C/C1CCCCC1)CP(=O)(O)CC1CCCCC1 [Compound No. 28, (Z)-3-cyclohexyl-2-(cyclohexylmethylhydroxyphosphinoyl)methylpropenoic acid] | 50 | 82400 | 19000 | 30400 | 40600 | 58100 | 18300 | 11700 | 4800 | 2300 | 1000 | 100 | 3400 | 3100 | 1300 | 2500 | 3000 | 1900 | 1100 | 500 | –
6 | C[C@@H](O)[C@H]1C(=O)N2C(C(=O)O)=C(SCCN=CN)C[C@H]12 [Imipenem, reference compound] | – | – | – | – | – | – | – | – | – | – | – | – | – | – | – | – | – | – | – | – | Urinary recovery of imipenem, Mean ± S.D. ([2]; imipenem 10 mg/kg iv alone, no inhibitor): 29.6 ± 4.8%; Necrosis of the kidney tissue, number of rabbits which necrotized versus number tested [5]: 4/4; BUN ([5]; auricular vein, 48 hours, * P ≤ 0.05): 70.8 mg/100 ml; Necrosis of the kidney tissue ([5]; grade in words): Marked
